In the supplement of paper PMC11451515:

Key:
Conditions in all cases: 48 h
NOMO1 [1] = experiment: AUC of viability dose-response curve (% viability x log10 dose units); higher = less sensitive
Outline: (§1)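 Leukemia cells adapted to each medium were seeded in 1536-well plates (500 or 1000 cells/well). They were dosed with library compounds in DMSO at 11 threefold doses, 47 μM to 0.79 nM, for 48 h at 37°C. CellTiter-Glo One luminescence was normalised per plate to DMSO and cell-free wells. Area under the curve was integrated by trapezoidal rule over log10 doses on a four-parameter log-logistic fit; curves exceeding full viability were scaled and curves failing quality control removed.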

SEM cells [2] = experiment: as above
Outline: as §1

P12-Ichikawa [3] = experiment: as above
Outline: as §1

NOMO1 [4] = experiment: cell viability relative to DMSO control; higher = less cytotoxic
Outline: (§2)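 NOMO1 or SEM (500 cells/well) or P12-Ichikawa (1000 cells/well) leukemia cells were adapted for at least four passages in each medium. They were seeded in 1536-well plates (5 μl) and pin-dosed with library compounds in DMSO over an 11-point threefold series, 47 μM to 0.79 nM. CellTiter-Glo One luminescence was read after 48 h at 37°C. Viability is the per-plate percentage relative to DMSO wells, with cell-free wells as background.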

SEM cells [5] = experiment: as above
Outline: as §2

P12-Ichikawa [6] = experiment: as above
Outline: as §2

CCCCNc1cc(C(=O)O)cc([S+](N)(=O)[O-])c1Oc1ccccc1
AUC of viability dose-response curve
Conditions | NOMO1 [1] | P12-Ichikawa [3] | SEM cells [2]
HPLM + 10% dialyzed FBS | 477 | 458 | 419
RPMI 5 mM glucose + 10% FBS | 427 | 465 | 433
RPMI 5 mM glucose + 10% dialyzed FBS | 461 | 465 | 440

cell viability [%]
Conditions | NOMO1 [4] | P12-Ichikawa [6] | SEM cells [5]
HPLM + 10% dialyzed FBS, 0.000781 µM | – | 117 | 80.3
HPLM + 10% dialyzed FBS, 0.00234 µM | – | 116 | 97.7
HPLM + 10% dialyzed FBS, 0.00702 µM | – | 118 | 100
HPLM + 10% dialyzed FBS, 0.0211 µM | – | 116 | 101
HPLM + 10% dialyzed FBS, 0.0632 µM | – | 124 | 103
HPLM + 10% dialyzed FBS, 0.19 µM | – | 120 | 95.8
HPLM + 10% dialyzed FBS, 0.569 µM | – | 121 | 99.9
HPLM + 10% dialyzed FBS, 1.71 µM | – | 118 | 107
HPLM + 10% dialyzed FBS, 5.12 µM | – | 117 | 115
HPLM + 10% dialyzed FBS, 15.4 µM | – | 128 | 116
HPLM + 10% dialyzed FBS, 46.1 µM | – | 127 | 118
RPMI 5 mM glucose + 10% FBS, 0.000781 µM | 118 | – | 111
RPMI 5 mM glucose + 10% FBS, 0.00234 µM | 113 | – | 110
RPMI 5 mM glucose + 10% FBS, 0.00702 µM | 128 | – | 117
RPMI 5 mM glucose + 10% FBS, 0.0211 µM | 127 | – | 114
RPMI 5 mM glucose + 10% FBS, 0.0632 µM | 129 | – | 111
RPMI 5 mM glucose + 10% FBS, 0.19 µM | 115 | – | 109
RPMI 5 mM glucose + 10% FBS, 0.569 µM | 124 | – | 107
RPMI 5 mM glucose + 10% FBS, 1.71 µM | 120 | – | 112
RPMI 5 mM glucose + 10% FBS, 5.12 µM | 136 | – | 116
RPMI 5 mM glucose + 10% FBS, 15.4 µM | 146 | – | 141
RPMI 5 mM glucose + 10% FBS, 46.1 µM | 135 | – | 111
RPMI 5 mM glucose + 10% dialyzed FBS, 0.000781 µM | – | 111 | 108
RPMI 5 mM glucose + 10% dialyzed FBS, 0.00234 µM | – | 119 | 110
RPMI 5 mM glucose + 10% dialyzed FBS, 0.00702 µM | – | 115 | 109
RPMI 5 mM glucose + 10% dialyzed FBS, 0.0211 µM | – | 115 | 113
RPMI 5 mM glucose + 10% dialyzed FBS, 0.0632 µM | – | 118 | 115
RPMI 5 mM glucose + 10% dialyzed FBS, 0.19 µM | – | 117 | 126
RPMI 5 mM glucose + 10% dialyzed FBS, 0.569 µM | – | 116 | 107
RPMI 5 mM glucose + 10% dialyzed FBS, 1.71 µM | – | 113 | 123
RPMI 5 mM glucose + 10% dialyzed FBS, 5.12 µM | – | 124 | 135
RPMI 5 mM glucose + 10% dialyzed FBS, 15.4 µM | – | 124 | 120
RPMI 5 mM glucose + 10% dialyzed FBS, 46.1 µM | – | 116 | 128

CCOC(=O)N1CCN(/[N+]([O-])=N/Oc2ccc([N+](=O)[O-])cc2[N+](=O)[O-])CC1
AUC of viability dose-response curve
Conditions | NOMO1 [1] | P12-Ichikawa [3] | SEM cells [2]
HPLM + 10% dialyzed FBS | 462 | 447 | 303
RPMI 5 mM glucose + 10% FBS | 429 | 425 | 324
RPMI 5 mM glucose + 10% dialyzed FBS | 412 | 398 | 337

cell viability [%]
Conditions | NOMO1 [4] | P12-Ichikawa [6] | SEM cells [5]
HPLM + 10% dialyzed FBS, 0.000781 µM | 85.1 | 93.7 | 64.4
HPLM + 10% dialyzed FBS, 0.00234 µM | 102 | 94.7 | 70.7
HPLM + 10% dialyzed FBS, 0.00702 µM | 102 | 96 | 60.1
HPLM + 10% dialyzed FBS, 0.0211 µM | 106 | 97.1 | 77.6
HPLM + 10% dialyzed FBS, 0.0632 µM | 117 | 98.2 | 76
HPLM + 10% dialyzed FBS, 0.19 µM | 101 | 102 | 94.4
HPLM + 10% dialyzed FBS, 0.569 µM | 109 | 101 | 85.7
HPLM + 10% dialyzed FBS, 1.71 µM | 110 | 97 | 73.8
HPLM + 10% dialyzed FBS, 5.12 µM | 97.1 | 95.5 | 42.5
HPLM + 10% dialyzed FBS, 15.4 µM | 98.5 | 96.9 | 22.4
HPLM + 10% dialyzed FBS, 46.1 µM | 50.8 | 27.1 | 14
RPMI 5 mM glucose + 10% FBS, 0.000781 µM | 80 | 91.6 | 70.6
RPMI 5 mM glucose + 10% FBS, 0.00234 µM | 100 | 96.5 | 84.9
RPMI 5 mM glucose + 10% FBS, 0.00702 µM | 89.3 | 88 | 56.8
RPMI 5 mM glucose + 10% FBS, 0.0211 µM | 94.7 | 90.6 | 91.9
RPMI 5 mM glucose + 10% FBS, 0.0632 µM | 89.2 | 102 | 93.9
RPMI 5 mM glucose + 10% FBS, 0.19 µM | 92.9 | 99.2 | 94.9
RPMI 5 mM glucose + 10% FBS, 0.569 µM | 94.1 | 99.8 | 88.8
RPMI 5 mM glucose + 10% FBS, 1.71 µM | 98.5 | 97.1 | 81.5
RPMI 5 mM glucose + 10% FBS, 5.12 µM | 102 | 84.3 | 40.7
RPMI 5 mM glucose + 10% FBS, 15.4 µM | 87 | 78.7 | 13.2
RPMI 5 mM glucose + 10% FBS, 46.1 µM | 38.5 | 19.9 | 8.13
RPMI 5 mM glucose + 10% dialyzed FBS, 0.000781 µM | 82.1 | 92 | 77.3
RPMI 5 mM glucose + 10% dialyzed FBS, 0.00234 µM | 87.5 | 83.9 | 91.6
RPMI 5 mM glucose + 10% dialyzed FBS, 0.00702 µM | 80.1 | 87.7 | 72.5
RPMI 5 mM glucose + 10% dialyzed FBS, 0.0211 µM | 86.8 | 88.3 | 88.2
RPMI 5 mM glucose + 10% dialyzed FBS, 0.0632 µM | 99.7 | 88.4 | 89
RPMI 5 mM glucose + 10% dialyzed FBS, 0.19 µM | 96.6 | 86.4 | 86.2
RPMI 5 mM glucose + 10% dialyzed FBS, 0.569 µM | 86.7 | 90.1 | 102
RPMI 5 mM glucose + 10% dialyzed FBS, 1.71 µM | 89.5 | 85.9 | 78.2
RPMI 5 mM glucose + 10% dialyzed FBS, 5.12 µM | 89.2 | 82.8 | 43.6
RPMI 5 mM glucose + 10% dialyzed FBS, 15.4 µM | 89.6 | 82.8 | 16.7
RPMI 5 mM glucose + 10% dialyzed FBS, 46.1 µM | 41.9 | 18.8 | 8.98
